This note sets out measurements from patent publication US4650785A, “Pharmaceutical composition having an excellent absorption property” (Ajinomoto Company Incoporated, priority 1982, dated 1987).

Where a SMILES comes first, the peptide text is derived from it. The star is where a group is joined. Cbz = O=C(OCc1ccccc1)*

One data set concerns Female ICR-CD-1 mice. The experiment in a line: Oral administration of absorption promoter mixed with insulin to mice: decrease in blood glucose and elevation of blood insulin versus control. It counts as in vivo. Further details: Degree of Elevation of Blood Insulin: unit not given here. Particulars: oral, mice, vs control group. As for the experimental part: The absorption promoter samples listed in Table 2 were dissolved or suspended in 0.5% CMC-0.05M tris-HCl buffers (pH: 7.8) and the solutions or suspensions were mixed with aqueous insulin solution. Female ICR-CD-1 mice 5 to 7 weeks old were orally administered predetermined amounts of the mixtures. A predetermined duration later, the percent decrease in blood glucose and the degree of elevation of blood insulin as compared with the control group were measured. The symbol "Z" in the structural formulas in the table represents a benzyloxycarbonyl group. The upper figures in the columns "effectiveness" represent the percent decrease in blood glucose and the lower parenthesized figures indicate the degree of elevation in blood insulin.

The test system of another data set is Female CD-1(ICR) Mice. Description: Toxicity studies of phenylalanine derivatives (LD50). Format: in vivo. The source says:
Toxicity Studies of Phenylalanine Derivatives with Oral IN Potentiating Activity in Female CD-1(ICR) Mice are as follows:
Phenylalanine derivatives were suspended in 0.5% CMC.

Data set [1] in a line: Usefulness as medicine absorption promoter (statement, test not described).
Where [2] appears, read: sample 6.0 mg/10 g with insulin 2.5 U/10 g body weight, 30 minutes.
[3] abbreviates: sample 6.0 mg/10 g with insulin 2.5 U/10 g body weight, 60 minutes.
The mark [4] stands for this setting: female CD-1(ICR) mice, suspended in 0.5% CMC.
[5] abbreviates: sample 3.0 mg/10 g with insulin 2.5 U/10 g body weight, 30 minutes.
Where [6] appears, read: sample 3.0 mg/10 g with insulin 2.5 U/10 g body weight, 60 minutes.
[7] abbreviates: sample 1.5 mg/10 g with insulin 2.5 U/10 g body weight, 30 minutes.
Where [8] appears, read: sample 1.5 mg/10 g with insulin 2.5 U/10 g body weight, 60 minutes.
Setting [9] is: sample 12.5 mg/10 g with insulin 2.5 U/10 g body weight, 30 minutes.
Where [10] appears, read: sample 12.5 mg/10 g with insulin 2.5 U/10 g body weight, 60 minutes.

As for `O=C(N[C@H](Cc1ccccc1)C(=O)O)OCc1ccccc1` [Sample S-18, N-benzyloxycarbonyl-D-phenylalanine], the entries for the “Decrease in Blood Glucose (%)” value in the data set on Female ICR-CD-1 mice (setting [2]) and in the data set on Female ICR-CD-1 mice (setting [3]) were 52.3% and 67.2%, respectively. The figures for the “Degree of Elevation of Blood Insulin” value with Female ICR-CD-1 mice (setting [2]) and in the data set with Female ICR-CD-1 mice (setting [3]) were 6.79 and 10.6, respectively. The “LD50 (mg/kg)” value in the data set on Female CD-1(ICR) Mice (setting [4]) is reported as > 4,000 mg/kg.

Regarding `O=C(C=Cc1ccccc1)N[C@@H](Cc1ccccc1)C(=O)O` [Sample S-3, N-cinnamoyl-L-phenylalanine], in the data set on Female ICR-CD-1 mice (setting [2]), the “Decrease in Blood Glucose (%)” value came out at 84.4% and the “Degree of Elevation of Blood Insulin” value was found to be 34.2. Besides, in the data set on Female ICR-CD-1 mice (setting [3]), the “Decrease in Blood Glucose (%)” value is given as 84.3% and the “Degree of Elevation of Blood Insulin” value is reported as 68.1. In addition, the “LD50 (mg/kg)” value in the data set on Female CD-1(ICR) Mice (mouse, in vivo) was > 2,500 mg/kg.

`O=C(N[C@@H](Cc1ccccc1)C(=O)O)OCc1ccccc1` [Sample S-15, N-benzyloxycarbonyl-L-phenylalanine]: in the data set with Female ICR-CD-1 mice (setting [5]), the “Decrease in Blood Glucose (%)” value was 37.5% and the “Degree of Elevation of Blood Insulin” value was found to be 3.43. Besides, in the data set on Female ICR-CD-1 mice (setting [6]), the “Decrease in Blood Glucose (%)” value is on record as 60.7% and the “Degree of Elevation of Blood Insulin” value worked out at 2.36. Besides, the “LD50 (mg/kg)” value with Female CD-1(ICR) Mice (setting [4]) is reported as > 2,750 mg/kg.

As for `O=C(N[C@@H](Cc1ccccc1)C(=O)N[C@@H](Cc1ccc(O)cc1)C(=O)O)OCc1ccccc1` [Sample S-10, N-benzyloxycarbonyl-L-phenylalanyl-L-tyrosine] (Cbz-Phe-Tyr-OH), in the data set on Female ICR-CD-1 mice (setting [2]), the “Decrease in Blood Glucose (%)” value is 61.5% and the “Degree of Elevation of Blood Insulin” value was determined as 41.9. Further, in the data set on Female ICR-CD-1 mice (setting [3]), the “Decrease in Blood Glucose (%)” value is 43.4% and the “Degree of Elevation of Blood Insulin” value was determined as 4.85. Besides, the “LD50 (mg/kg)” value in the data set with Female CD-1(ICR) Mice (setting [4]) was > 3,000 mg/kg.

In the case of `COc1ccc(COC(=O)N[C@@H](Cc2ccccc2)C(=O)O)cc1` [Sample S-17, N-(4-methoxybenzyloxycarbonyl)-L-phenylalanine], the “Decrease in Blood Glucose (%)” value with Female ICR-CD-1 mice (setting [5]) stood at 64.8%; in the data set with Female ICR-CD-1 mice (setting [6]) it was 50.6%. The “Degree of Elevation of Blood Insulin” value in the data set with Female ICR-CD-1 mice (setting [5]) came to 14.4; in the data set on Female ICR-CD-1 mice (setting [6]) it was 21.2. For the same molecule, the “LD50” value with Female CD-1(ICR) Mice (setting [4]) is recorded as 750 mg/kg.

With `CC(=O)N[C@@H](Cc1ccccc1)C(=O)O` [N-acetylphenylalanine], in data set [1], the “usefulness as the absorption promoter” value is given as “not useful as the absorption promoter”.

Regarding `O=C(COc1ccc(Cl)cc1)N[C@@H](Cc1ccccc1)C(=O)O` [Sample S-13, N-[(4-chlorophenoxy)acetyl]-L-phenylalanine], in the data set on Female ICR-CD-1 mice (setting [7]), the “Decrease in Blood Glucose (%)” value is 31.9% and the “Degree of Elevation of Blood Insulin” value stood at 43.4. In the data set with Female ICR-CD-1 mice (setting [8]), the “Decrease in Blood Glucose (%)” value is recorded as 18.5% and the “Degree of Elevation of Blood Insulin” value is reported as 9.82. In addition, the “LD50 (mg/kg)” value in the data set on Female CD-1(ICR) Mice (mouse, in vivo) was > 3,500 mg/kg.

As for `N[C@@H](Cc1ccccc1)C(=O)O` [Phenylalanine], the “usefulness as the absorption promoter” value in data set [1] was “not useful as the absorption promoter”.

Consider `O=C(COc1cccc2ccccc12)N[C@@H](Cc1ccccc1)C(=O)O` [Sample S-11, N-[(1-naphthoxy)acetyl]-L-phenylalanine], for which the “Decrease in Blood Glucose (%)” value in the data set on Female ICR-CD-1 mice (setting [2]) was found to be 54.0%; in the data set with Female ICR-CD-1 mice (setting [3]) it was 59.7%. Moreover, the “Degree of Elevation of Blood Insulin” value was determined as 11.8 in the data set with Female ICR-CD-1 mice (setting [2]) and 5.07 with Female ICR-CD-1 mice (setting [3]). Besides, in the data set with Female CD-1(ICR) Mice (mouse, in vivo), the “LD50 (mg/kg)” value is > 4,000 mg/kg.

Regarding `O=C(COc1ccccc1)N[C@@H](Cc1ccccc1)C(=O)O` [Sample S-5, N-phenoxyacetyl-L-phenylalanine], in the data set on Female ICR-CD-1 mice (setting [9]), the “Decrease in Blood Glucose (%)” value turned out to be 57.9% and the “Degree of Elevation of Blood Insulin” value was determined as 88.5. For the same molecule, in the data set with Female ICR-CD-1 mice (setting [10]), the “Decrease in Blood Glucose (%)” value came to 33.5% and the “Degree of Elevation of Blood Insulin” value is given as 18.0. In addition, the “LD50 (mg/kg)” value with Female CD-1(ICR) Mice (mouse, in vivo) is > 4,000 mg/kg.

In the case of `O=C(COc1ccc2ccccc2c1)N[C@@H](Cc1ccccc1)C(=O)O` [Sample S-12, N-[(2-naphthoxy)acetyl]-L-phenylalanine], the figures for the “Decrease in Blood Glucose (%)” value in the data set with Female ICR-CD-1 mice (setting [2]) and in the data set on Female ICR-CD-1 mice (setting [3]) were 50.8% and 66.8%, respectively. Besides, the figures for the “Degree of Elevation of Blood Insulin” value in the data set on Female ICR-CD-1 mice (setting [2]) and in the data set with Female ICR-CD-1 mice (setting [3]) were 6.05 and 5.62, respectively. Besides, the “LD50 (mg/kg)” value in the data set on Female CD-1(ICR) Mice (mouse, in vivo) is on record as > 4,000 mg/kg.

On to `O=C(N[C@@H](Cc1ccccc1)C(=O)N[C@@H](Cc1ccccc1)C(=O)O)OCc1ccccc1` [Sample S-7, N-benzyloxycarbonyl-L-phenylalanyl-L-phenylalanine] (Cbz-Phe-Phe-OH), for which, in the data set with Female ICR-CD-1 mice (setting [5]), the “Decrease in Blood Glucose (%)” value was determined as 70.0% and the “Degree of Elevation of Blood Insulin” value turned out to be 7.72. In addition, in the data set with Female ICR-CD-1 mice (setting [6]), the “Decrease in Blood Glucose (%)” value is on record as 40.6% and the “Degree of Elevation of Blood Insulin” value is 9.35. Moreover, the “LD50 (mg/kg)” value in the data set on Female CD-1(ICR) Mice (setting [4]) is listed as > 3,000 mg/kg.

One may read the LD50 as the dose at which mortality reaches 50%.
